Reference: US20050020544A1, “Bicyclic CB2 cannabinoid receptor ligands” (priority 2002, published 2005)

How the values were obtained:
[1] = tested on: ICR male mice; experiment: Tail flick model for acute peripheral pain, i.p.; format: in vivo, mouse; conditions: 5 mg/kg i.p.
Description: (§1) ICR male mice (20-30 g average body weight, Harlan, Israel) were injected i.p. at the volume dose of 5 ml/kg. Each treatment group contained at least 6 animals. Morphine HCl was used as positive control at the final dose of 5 mg/kg. Its vehicle, saline, was also included as control. The test compounds were dissolved in CREMOPHOR EL®:ethanol and diluted 1:20 in saline prior to injection, this second type of vehicle was also included as negative control. The final dose injected varied from 0.1 to 10 mg/kg. At predetermined time points after treatment injection, the animals were placed in the tail flick system (Socrel, model DS 20). Animals were gently held while their tails were located above the photoelectric cell. The tails were then illuminated (21V) at 2 cm from the distal tip and the latency time, measured in seconds, was recorded in duplicates. At the end of the study, the animals were euthanized by i.p. injection of 100 mg/kg sodium pentobarbitone.
Two parameters were used to analyze the results, the latency time and the % of animals showing analgesia. […] The results in both cases are expressed as mean±SE. The differences between the latency times or the % of animals showing analgesia among various treatment groups was analyzed by analysis of variance (ANOVA) followed by post-hoc Tukey's test (for latency) or Fisher's exact test (for % animals). A value of p<0.05 is considered to be statistically significant.

[2] = tested on: Male Sprague Dawley rats; experiment: Inflammatory pain: carrageenan paw edema in rats, thermal and mechanical stimuli; format: in vivo, rat; conditions: 5 mg/kg, three hours
Description: Male Sprague Dawley rats (200 g average body weight, Harlan, Israel) are transiently sedated by placement on dry ice for the duration of the injections. […] Before induction of inflammatory pain and three hours after injection, the animals reactions to pain stimuli were tested in two systems. The first stimulus was thermal and assessed by the Plantar Test according to Hargreaves, using Ugo Basile Model 7370. The scale was set to an intensity of 50 arbitrary units. The latency time till the animal lift a paw as a reaction to the thermal stimulus was recorded for both the inflamed and non-inflamed hind paws. The second stimulus was mechanical (tactile) and assessed using a Dynamic Plantar Sesthesiomether (Ugo Basile Model 73400-002).
The results are measured as the differences between the two hind paws at time 0 and 3 hours both as ALT, for the latency time in the thermal part of the study, and as ΔForce, for the mechanical part of the study.

[3] = tested on: male Sprague-Dawley rats; experiment: Chronic constriction nerve injury, neuropathic pain (Von Frey filaments); format: in vivo, rat; conditions: 4 mg/kg i.p., 15 minutes
Excerpt: The aim of this study was to assess the potential analgesic effects of the novel bicyclic CB2 binding compounds in an animal model of neuropathic pain. A peripheral monopathy was induced in the right hind limb of rats following a chronic constriction of the sciatic nerve (Bennet, G. J. & Xie, Y-K., Pain 33: 87-107, 1988). The development of mechanical allodyna was monitored using an established behavioral test (Von Frey filaments).
Pre-surgery baseline values were ascertained as the mean of 2 pre-surgery values. Once the baseline values had been established, the animals were surgically prepared by constricting the right sciatic nerve with 4 chromic cat gut loose ligatures.
The design was randomized, performed in a masked fashion as to whether drug or vehicle is being given. The animals, male Sprague-Dawley rats (average body weight 240-290 g), were allowed to acclimatize to the behavioral testing equipment prior to testing. On the testing day, the animals, at least six per treatment group, were given i.p. a single dose of one of the test compounds in a volume of 2.5 ml/kg. Fifteen minutes later, a series of Von Frey filaments (pre-calibrated prior to testing) were applied to the plantar surface of the hind paw, from below. The filaments were applied in ascending order starting with the weakest force and the withdrawal threshold for both the ipsilateral and contralateral hind paws was evaluated. Each filament was indented on the mid-plantar surface of the foot to the point where it just starts to bend; this is repeated approximately 8-10 times per filament at a frequency of approximately 1 Hz. The withdrawal threshold is defined as being the lowest force of two or more consecutive Von Frey's filaments to elicit a reflex withdrawal response (i.e. a brief paw flick) and is measured in grams.
The results are expressed as % increase in the threshold of response to Von Frey's filaments in the test compound treated group versus the vehicle treated animals and per definition the vehicle treated group yields a null baseline value. The black column represents the morphine treated animals (4 mg/kg), the gray and the dotted column bars represent two doses of compound A (0.5 and 1 mg/kg respectively).

[4] = tested on: ICR male mice; experiment: Development of tolerance on repeated administration, tail flick model; conditions: 5 mg/kg twice daily i.p.
Description: as §1
Tolerance was assessed in the tail flick model above described. Briefly, the test compounds were administered twice daily i.p. for up to 10 days to groups of 10 animals each. The noxious pain threshold was measured as previously described in example 13 thirty minutes after the first drug administration on days 1, 4, 8 and 10. Results are expressed as mean latency time till the animal flicked its tail±SE. The differences between the latency times or the % of animals showing analgesia among various treatment groups was analyzed by analysis of variance (ANOVA) followed by post-hoc Tukey's test (for latency) or Fisher's exact test (for % animals). A value of p<0.05 is considered to be statistically significant.

[5] = biological target: T1, human CB1 receptor (Homo sapiens, UniProt P21554); experiment: biochemical; format: binding; conditions: CB1 IC50
T1 construct: purchased Perkin Elmer/NEN; host or cells: HEK-293 cells, stably transfected (membranes)
Outline: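 Displacement of [3H]CP55940 from membranes of HEK-293 cells stably expressing human CB1, in 50 mM Tris-HCl, 2.5 mM EDTA, 5 mM MgCl2, 1 mg/ml BSA, pH 7.4, 0.1% DMSO; 1.5 h at 30° C, then filtration.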

[6] = biological target: human CB2 receptor (Homo sapiens, UniProt P34972); experiment: Adenylylcyclase assay: forskolin-activated cAMP in CB2 transfected HEK-293 cells; format: cell-based; conditions: HEK293, read-out: % inhibition at 1 μM; CB2 receptor transfected HEK-293, 1 μM forskolin
Description: (§2) Cannabinoids and derivatives bind to G-protein-coupled CB1 and CB2 receptors and exert their activity via the inhibition of adenylylcyclase activity. An adenylylcyclase assay forms a basis for the functional analysis of the compounds by determining their capacity to inhibit or promote forskolin-activated cAMP production. The assay is carried out according to Chin et al. (Chin, C. N. et al., J. Neurochem. 70: 366-73, 1998). Briefly, HEK-293 human kidney cells (ATCC#CRL-1573) stably transfected with either the human CB1 or CB2 receptor (cDNA) were grown in DMEM supplemented with 10% fetal calf serum, 1% Penicillin-Streptomycin and 2 mM L-glutamine. Cells were seeded in 24 wells plate at 5×10^4 cells/well and incubated for 48 hours. Medium was then removed and the adherent cells were washed with PBS. Two hundred μl of serum free medium supplemented with 0.2 mM Ro 20-1724, 0.25% BSA, and 20 mM HEPES was then added to each well. The cells were then activated with 1 μM forskolin in presence of the bicyclic test compounds in concentrations ranging from 10 pM up to 1 μM. The activated cells were then incubated at 37° C. for 20 minutes and the reaction terminated with 1.2 M HCl to a final concentration of 0.1 M. Cells were lyzed by freeze and thaw and the lysate was neutralized with 2 M HEPES, pH 7.5. cAMP was measured in 50 μl aliquots using the [^3H]-cAMP assay system (Amersham).
(§3) This experiment was first performed on CB2 receptor transfected cells.

[7] = biological target: T1, human CB1 receptor; experiment: Adenylylcyclase assay: forskolin-activated cAMP in CB1 transfected HEK-293 cells; format: cell-based
Description: as §2, §3

T1 sequence (P21554 whole entry): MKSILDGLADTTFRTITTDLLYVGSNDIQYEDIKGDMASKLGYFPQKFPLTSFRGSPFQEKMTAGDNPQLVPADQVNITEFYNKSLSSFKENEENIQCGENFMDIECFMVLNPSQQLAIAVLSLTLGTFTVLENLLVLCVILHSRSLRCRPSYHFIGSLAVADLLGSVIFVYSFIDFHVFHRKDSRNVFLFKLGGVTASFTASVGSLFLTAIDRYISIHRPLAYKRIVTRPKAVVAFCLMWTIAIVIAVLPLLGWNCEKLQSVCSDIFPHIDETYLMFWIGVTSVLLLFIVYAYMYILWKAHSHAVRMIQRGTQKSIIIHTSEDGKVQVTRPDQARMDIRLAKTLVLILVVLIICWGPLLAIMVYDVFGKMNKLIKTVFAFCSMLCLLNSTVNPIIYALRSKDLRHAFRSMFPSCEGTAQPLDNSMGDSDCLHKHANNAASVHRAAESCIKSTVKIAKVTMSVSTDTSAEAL
Chain of human CB2 receptor (P34972 whole entry): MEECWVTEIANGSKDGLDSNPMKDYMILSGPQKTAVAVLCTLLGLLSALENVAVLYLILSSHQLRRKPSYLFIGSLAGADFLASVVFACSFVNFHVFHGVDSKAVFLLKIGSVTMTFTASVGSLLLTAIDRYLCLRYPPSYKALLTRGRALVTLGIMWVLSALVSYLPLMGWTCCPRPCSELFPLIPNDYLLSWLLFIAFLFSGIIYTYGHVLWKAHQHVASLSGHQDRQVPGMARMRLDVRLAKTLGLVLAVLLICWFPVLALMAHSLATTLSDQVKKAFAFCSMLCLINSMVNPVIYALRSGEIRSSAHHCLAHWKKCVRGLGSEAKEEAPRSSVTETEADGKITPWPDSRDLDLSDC

SMILES	latency time ([1]; 30 minutes) [s]	% animals showing analgesia ([1]; 90 minutes)	latency time ([1]; 90 minutes) [s]	latency time ([1]; five and a half hour) [s]	% animals showing increased analgesia ([1]; five and an half hours) [%]	% animals showing increased analgesia ([1]; half-an hour) [%]	latency time ([1]; two and a half hour) [s]	ΔForce (tactile stimulus) [2] [grams]	ΔLT (thermal stimulus) [2] [s]	increase in pain threshold (Von Frey) versus vehicle, ipsilateral hind paw [3] [%]	% of animals showing increased analgesia ([4]; day 10) [%]	latency time ([4]; day 10) [s]	% of animals showing increased analgesia ([4]; day one) [%]	latency time ([4]; day one) [s]	IC50 [5] [nM]	inhibition at 1 µM [6] [%]	IC50 [7] [nM]	inhibition at 1 µM ([7]; HEK293, CB1 transfected HEK-293, 1 μM forskolin, read-out: maximal inhibition at 1 μM) [%]
CN1CC[C@]23c4c5ccc(O)c4O[C@H]2[C@@H](O)C=C[C@H]3[C@H]1C5 [Morphine, reference compound]	7.5	about 40%	3.9	3.6	17	88	3.1	2.7	0	91	30	5.8	80	7.5				
CCCCCCC(C)(C)c1cc(O)c2c(c1)OC(C)(C)[C@@H]1CC=C(CO)C[C@@H]21 [HU-210, 7-hydroxy-Δ^6-tetrahydrocannabinol-1,1-dimethyl-heptyl, reference compound]															0.39	50	0.35	73
